Measurements: patent publication US20220324835A1 (Nurix Therapeutics, Inc., priority 2018, published 2022)

What was measured:
Cbl-b [1] = target: T1, Cbl-b (Homo sapiens, UniProt Q13191); assay: Cbl-b inhibition assay (Cbl-b activity assay, FRET, Biological Example 1; 100 mM NaCl, 60 nM Src kinase); format: biochemical; conditions: upper bound stated in text lists; read-out: IC50 values in the Cbl-b inhibition assay of Biological Example 1
Outline: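 Binding-based Cbl-b activity assay. Src-phosphorylated, N-terminally biotin-Avi-tagged Cbl-b recruits labelled UbcH5B-Ub, and proximity to streptavidin-terbium yields FRET.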

Cbl-b (residues 36-427) = Cbl-b (residues 36-427) (Homo sapiens, UniProt Q13191); assay: Cbl-b binding assay (SPR, Biacore T200); conditions: 20° C., 1:1 binding model
Outline: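 Steps: capture protein on NeutrAvidin surface; inject compound dilutions (8 or 10 points from 100 or 50 μM) 50 s; allow 90-180 s dissociation; regenerate 20 s with 0.3 M NaCl. Runs at 20° C in HEPES pH 7.5/100 mM NaCl/2% DMSO; 1:1 fitting.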

Cbl-b [2] = target: T1, Cbl-b; assay: Cbl-b activity assay (Cbl-b inhibition assay), TR-FRET of Cbl-b interaction with UbcH5B-Ub; format: biochemical
Outline: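 UbcH5B (C85K) conjugated to N-terminally Bodipy-Fluorescein-labeled ubiquitin served as the fluorescent partner. After compound preincubation, Src kinase (60 nM) with 1 mM ATP and 5 mM MgCl2 (final) was added for 1.5 h, followed by a further 1 h incubation. Some values were obtained with 50 mM NaCl and 30 nM Src.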

[3] = assay buffer with 100 mM NaCl, 60 nM Src kinase, read-out: Cbl-b activity IC50

T1 sequence (Q13191 36-427): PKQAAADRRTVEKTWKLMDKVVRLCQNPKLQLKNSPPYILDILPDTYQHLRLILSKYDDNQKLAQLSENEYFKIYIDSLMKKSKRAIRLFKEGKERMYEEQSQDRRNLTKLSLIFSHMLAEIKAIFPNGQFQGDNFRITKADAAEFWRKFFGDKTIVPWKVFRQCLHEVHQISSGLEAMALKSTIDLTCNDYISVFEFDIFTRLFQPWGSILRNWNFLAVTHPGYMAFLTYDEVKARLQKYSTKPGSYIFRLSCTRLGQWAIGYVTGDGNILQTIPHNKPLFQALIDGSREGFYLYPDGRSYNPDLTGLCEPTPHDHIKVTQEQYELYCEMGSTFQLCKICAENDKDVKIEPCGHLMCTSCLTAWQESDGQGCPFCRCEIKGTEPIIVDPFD
Sequence of Cbl-b (residues 36-427) (Q13191 36-427): as above

Question: What does the source list for `C[C@H](Cc1nnco1)c1cccc(N2Cc3c(cccc3C(F)(F)F)C2=O)c1` [Compound 266, (R)-2-(3-(1-(1,3,4-oxadiazol-2-yl)propan-2-yl)phenyl)-4-(trifluoromethyl)isoindolin-1-one]?
Answer: IC50 (Cbl-b [1]): ≤ 10 µM; Kd (Cbl-b (residues 36-427)): > 10 µM; IC50 (Cbl-b [2]; [3]): 3 to 10 µM

Question: How did the IC50 (Cbl-b [1]) turn out when `C[C@H](Sc1nncn1C)c1ccnc(NC(=O)c2cc(C(F)(F)F)c(Cl)cn2)c1` [Compound 114, (S)-5-chloro-N-(4-(1-((4-methyl-4H-1,2,4-triazol-3-yl)thio)ethyl)pyridin-2-yl)-4-(trifluoromethyl)picolinamide] was run?
Answer: Its IC50 is no more than 10 µM.

Question: And the Kd (Cbl-b (residues 36-427))?
Answer: The Kd was greater than 10 µM.

Question: And the IC50 (Cbl-b [2]; [3])?
Answer: The IC50 was 3 to 10 µM.

Question: With `C[C@H](Sc1nncn1C)c1ccnc(NC(=O)c2cc(C(F)(F)F)c3ccccc3n2)c1` [Compound 111, (S)-N-(4-(1-((4-methyl-4H-1,2,4-triazol-3-yl)thio)ethyl)pyridin-2-yl)-4-(trifluoromethyl)quinoline-2-carboxamide] as the compound, how does the IC50 (Cbl-b [1]) read?
Answer: Its IC50 is no more than 10 µM.

Question: And the Kd (Cbl-b (residues 36-427))?
Answer: The Kd was 3 to 10 µM.

Question: What about the IC50 (Cbl-b [2]; [3]) of the same compound?
Answer: Its IC50 is 3 to 10 µM.

Question: With `Cc1nc(C(=O)Nc2cccc([C@H](C)Sc3nncn3C)c2)cs1` [Compound 41, (S)-2-Methyl-N-(3-(1-((4-methyl-4H-1,2,4-triazol-3-yl)thio)ethyl)phenyl)thiazole-4-carboxamide] as the compound, how does the IC50 (Cbl-b [1]) read?
Answer: The IC50 was no more than 10 µM.

Question: And the Kd (Cbl-b (residues 36-427))?
Answer: The Kd was 1 to 3 µM.

Question: What about the IC50 (Cbl-b [2]; [3]) of the same compound?
Answer: Its IC50 is 1 to 3 µM.

Question: With `C[C@H](Cc1ncnn1C)c1cccc(N2Cc3c(cccc3C(F)(F)F)C2=O)c1` [Compound 264, (R)-2-(3-(1-(2-methyl-2H-1,2,4-triazol-3-yl)propan-2-yl)phenyl)-4-(trifluoromethyl)isoindolin-1-one] as the compound, how does the IC50 (Cbl-b [1]) read?
Answer: Its IC50 is no more than 10 µM.

Question: What about the Kd (Cbl-b (residues 36-427)) of the same compound?
Answer: Its Kd is greater than 10 µM.

Question: And the IC50 (Cbl-b [2]; [3])?
Answer: Its IC50 is 3 to 10 µM.

Question: With `CCNc1cc(C(C)Sc2nncn2C)cc(N2Cc3c(cccc3C(F)(F)F)C2=O)n1` (stereo not shown) [Compound 178, 2-[6-(ethylamino)-4-[1-[(4-methyl-1,2,4-triazol-3-yl)sulfanyl]ethyl]-2-pyridyl]-4-(trifluoromethyl)isoindolin-1-one] as the compound, how does the IC50 (Cbl-b [1]) read?
Answer: The IC50 was no more than 1 µM.

Question: What about the Kd (Cbl-b (residues 36-427)) of the same compound?
Answer: The Kd was 0.301 to 1 µM.

Question: And the IC50 (Cbl-b [2]; [3])?
Answer: Its IC50 is 0.301 to 1 µM.

Question: Which results are given for `C[C@H](Cc1nncn1C)c1cc(N2Cc3c(cccc3C(F)(F)F)C2=O)ccc1F` [Compound 280, 2-[4-fluoro-3-[(1R)-1-methyl-2-(4-methyl-1,2,4-triazol-3-yl)ethyl]phenyl]-4-(trifluoromethyl)isoindolin-1-one]?
Answer: IC50 (Cbl-b [1]): ≤ 10 µM; Kd (Cbl-b (residues 36-427)): 1 to 3 µM; IC50 (Cbl-b [2]; [3]): 3 to 10 µM

Question: `C[C@H](Sc1nncn1C)c1cccc(NC(=O)c2cccc(-c3ccn[nH]3)c2)c1` [Compound 44, (S)-N-(3-(1-((4-Methyl-4H-1,2,4-triazol-3-yl)thio)ethyl)phenyl)-3-(1H-pyrazol-5-yl)benzamide] was tested. Which IC50 (Cbl-b [1]) did it give?
Answer: Its IC50 is no more than 10 µM.

Question: What about the Kd (Cbl-b (residues 36-427)) of the same compound?
Answer: The Kd was 3 to 10 µM.

Question: And the IC50 (Cbl-b [2]; [3])?
Answer: Its IC50 is 3 to 10 µM.

Question: What does the source list for `C[C@H](Sc1nncn1C)c1cccc(NC(=O)c2cc(CCO)ccn2)c1` [Compound 46, (S)-4-(2-Hydroxyethyl)-N-(3-(1-((4-methyl-4H-1,2,4-triazol-3-yl)thio)ethyl)phenyl)picolinamide]?
Answer: IC50 (Cbl-b [1]): ≤ 10 µM; Kd (Cbl-b (residues 36-427)): 3 to 10 µM; IC50 (Cbl-b [2]; [3]): 1 to 3 µM

Question: `C[C@H](Sc1nncn1C)c1cccc(NC(=O)c2cc(C(=O)N3CCCCC3)ccn2)c1` [Compound 144, (S)-N-(3-(1-((4-methyl-4H-1,2,4-triazol-3-yl)thio)ethyl)phenyl)-4-(piperidine-1-carbonyl)picolinamide] was tested. Which IC50 (Cbl-b [1]) did it give?
Answer: The IC50 was no more than 10 µM.

Question: What about the Kd (Cbl-b (residues 36-427)) of the same compound?
Answer: The Kd was 3 to 10 µM.

Question: And the IC50 (Cbl-b [2]; [3])?
Answer: Its IC50 is 3 to 10 µM.

Question: Which IC50 (Cbl-b [1]) does the source give for `CC(Sc1nncn1C)c1cc(NC[C@H](C)O)nc(N2Cc3c(cccc3C(F)(F)F)C2=O)c1` (stereo partly drawn) [Compound 177, 2-[6-[[(2S)-2-hydroxypropyl]amino]-4-[1-[(4-methyl-1,2,4-triazol-3-yl)sulfanyl]ethyl]-2-pyridyl]-4-(trifluoromethyl)iso-indolin-1-one] here?
Answer: Its IC50 is no more than 10 µM.

Question: What about the Kd (Cbl-b (residues 36-427)) of the same compound?
Answer: The Kd was 3 to 10 µM.

Question: What about the IC50 (Cbl-b [2]; [3]) of the same compound?
Answer: Its IC50 is 3 to 10 µM.

Question: How did the IC50 (Cbl-b [1]) turn out when `COc1ccc(C(C)Sc2nncn2C)cc1NC(=O)c1ccc2ccccc2n1` (stereo not shown) [Compound 97, N-(2-methoxy-5-(1-((4-methyl-4H-1,2,4-triazol-3-yl)thio)ethyl)phenyl)quinoline-2-carboxamide] was run?
Answer: The IC50 was no more than 10 µM.

Question: And the Kd (Cbl-b (residues 36-427))?
Answer: Its Kd is 3 to 10 µM.

Question: What about the IC50 (Cbl-b [2]; * assay buffer containing 50 mM NaCl instead of 100 mM NaCl and 30 nM Src kinase instead of 60 nM, read-out: Cbl-b activity IC50 (μM)*) of the same compound?
Answer: Its IC50 is 1 to 3 µM.

Question: What about the IC50 (Cbl-b [2]; [3]) of the same compound?
Answer: The IC50 was 1 to 3 µM.

Question: For `C[C@H](Sc1nncn1C)c1ccnc(NC(=O)c2cc(N3CC[C@H](O)C3)cc(C(F)(F)F)n2)c1` [Compound 126, 4-[(3S)-3-hydroxypyrrolidin-1-yl]-N-[4-[(1S)-1-[(4-methyl-1,2,4-triazol-3-yl)sulfanyl]ethyl]-2-pyridyl]-6-(trifluoromethyl)pyridine-2-carboxamide], which IC50 (Cbl-b [1]) is on record?
Answer: Its IC50 is no more than 10 µM.

Question: What about the Kd (Cbl-b (residues 36-427)) of the same compound?
Answer: The Kd was 3 to 10 µM.

Question: And the IC50 (Cbl-b [2]; [3])?
Answer: Its IC50 is 1 to 3 µM.

Question: With `CC(Cc1nccn1C)c1cccc(NC(=O)c2cc(C(=O)N3CC[C@H](O)C3)ccn2)c1` (stereo partly drawn) [Compound 252, 4-((S)-3-hydroxypyrrolidine-1-carbonyl)-N-(3-(1-(1-methyl-s1H-imidazol-2-yl)propan-2-yl)phenyl)picolinamide] as the compound, how does the IC50 (Cbl-b [1]) read?
Answer: The IC50 was no more than 10 µM.

Question: What about the Kd (Cbl-b (residues 36-427)) of the same compound?
Answer: The Kd was 1 to 3 µM.

Question: What about the IC50 (Cbl-b [2]; [3]) of the same compound?
Answer: Its IC50 is 3 to 10 µM.

Question: How did the IC50 (Cbl-b [1]) turn out when `CNc1ccnc(C(=O)Nc2cccc([C@H](C)Sc3nncn3C)c2)c1` [Compound 60, (S)-N-(3-(1-((4-methyl-4H-1,2,4-triazol-3-yl)thio)ethyl)phenyl)-4-(methylamino)picolinamide] was run?
Answer: Its IC50 is no more than 10 µM.

Question: And the Kd (Cbl-b (residues 36-427))?
Answer: The Kd was 3 to 10 µM.

Question: And the IC50 (Cbl-b [2]; [3])?
Answer: The IC50 was 1 to 3 µM.

Question: Which results are given for `Cc1cc(C(=O)Nc2cccc([C@H](C)Sc3nncn3C)c2)[nH]c(=O)c1` [Compound 50, (S)-4-Methyl-N-(3-(1-((4-methyl-4H-1,2,4-triazol-3-yl)thio)ethyl)phenyl)-6-oxo-1,6-dihydropyridine-2-carboxamide]?
Answer: IC50 (Cbl-b [1]): ≤ 10 µM; Kd (Cbl-b (residues 36-427)): > 10 µM; IC50 (Cbl-b [2]; [3]): 3 to 10 µM

Question: With `C[C@H](Cc1nncn1C)c1cccc(NC(=O)c2cc(C(=O)N3CCNCC3)ccn2)c1` [Compound 242, (R)-N-(3-(1-(4-methyl-4H-1,2,4-triazol-3-yl)propan-2-yl)phenyl)-4-(piperazine-1-carbonyl)picolinamide] as the compound, how does the IC50 (Cbl-b [1]) read?
Answer: Its IC50 is no more than 10 µM.

Question: And the Kd (Cbl-b (residues 36-427))?
Answer: The Kd was 3 to 10 µM.

Question: What about the IC50 (Cbl-b [2]; [3]) of the same compound?
Answer: The IC50 was 3 to 10 µM.

Question: For `C[C@H](Cc1nccn1C)c1cccc(NC(=O)c2cc(C(=O)N3C[C@@H](O)C[C@H]3C)ccn2)c1` [Compound 253, 4-((2R,4S)-4-hydroxy-2-methylpyrrolidine-1-carbonyl)-N-(3-((R)-1-(1-methyl-1H-imidazol-2-yl)propan-2-yl)phenyl)picolinamide], which IC50 (Cbl-b [1]) is on record?
Answer: The IC50 was no more than 10 µM.

Question: And the Kd (Cbl-b (residues 36-427))?
Answer: The Kd was 3 to 10 µM.

Question: And the IC50 (Cbl-b [2]; [3])?
Answer: The IC50 was 3 to 10 µM.

Question: `C[C@H](Sc1nncn1C)c1cccc(NC(=O)c2cccc(C(F)(F)F)c2F)c1` [Compound 42, (S)-2-Fluoro-N-(3-(1-((4-methyl-4H-1,2,4-triazol-3-yl)thio)ethyl)phenyl)-3-(trifluoromethyl)benzamide] was tested. Which IC50 (Cbl-b [1]) did it give?
Answer: The IC50 was no more than 1 µM.

Question: And the Kd (Cbl-b (residues 36-427))?
Answer: The Kd was 0.301 to 1 µM.

Question: What about the IC50 (Cbl-b [2]; [3]) of the same compound?
Answer: Its IC50 is 0.301 to 1 µM.

Question: Which results are given for `C[C@H](Cc1nncn1C)c1cccc(N2Cc3c(cc(CN4CC[C@H](O)C4)cc3C(F)(F)F)C2=O)c1` [Compound 394, 6-(((S)-3-hydroxypyrrolidin-1-yl)methyl)-2-(3-((R)-1-(4-methyl-4H-1,2,4-triazol-3-yl)propan-2-yl)phenyl)-4-(trifluoromethyl)isoindolin-1-one]?
Answer: IC50 (Cbl-b [1]): ≤ 0.1 µM; Kd (Cbl-b (residues 36-427)): < 0.1 µM; IC50 (Cbl-b [2]; [3]): < 0.1 µM

Question: Which results are given for `C[C@H](Cc1ncn(C)n1)c1cccc(N2Cc3c(cccc3C(F)(F)F)C2=O)c1` [Compound 263, (R)-2-(3-(1-(1-methyl-1H-1,2,4-triazol-3-yl)propan-2-yl)phenyl)-4-(trifluoromethyl)isoindolin-1-one]?
Answer: IC50 (Cbl-b [1]): ≤ 10 µM; Kd (Cbl-b (residues 36-427)): 3 to 10 µM; IC50 (Cbl-b [2]; [3]): 3 to 10 µM
